From patent US11970502B2, “Macrocyclic antiviral agents” (Enanta Pharmaceuticals, Inc., priority 2021, dated 2024) come the findings set out here.

Structures are written as SMILES. Read-outs that look alike come from different tables or passages of the source.

A word on the IC50: it is the concentration at which inhibition is half-maximal. A word on the EC50: it is the concentration needed to bring the measured effect to its halfway point.

The target in one assay is SARS-CoV-2 3CL-protease (Severe acute respiratory syndrome coronavirus 2, UniProt P0DTD1). The assay is described as follows: biochemical.
Assay [1] concerns 229E human corona virus (hCoV). Description: 229E Cellular Assay (MRC5), 229E live virus assay, ATPlite readout. The format is cell-based, hCoV-229E.
[2] abbreviates: recombinant 3CL-protease 10 nM, substrate 40 μM, 30 min preincubation at RT, read-out: FRET IC50.
Setting [3] is: Human coronavirus 229E, MRC5, 144 h; read-out: EC50 (229E).

`CC(C)C[C@H]1C(=O)N[C@H](C#N)C[C@@H]2C[C@@H](C/C=C/C[C@H](NC(=O)OC(C)(C)C)C(=O)N1C)NC2=O` [Example 1] yielded an IC50 against SARS-CoV-2 3CL-protease of 100 to 1000 nM. For the same compound, the EC50 in assay [1] (Human coronavirus 229E, MRC5, 144 h, read-out: EC50 (229E)) was greater than 1000 nM.
As for `CC(C)C[C@H]1C(=O)N[C@H](C#N)C[C@@H]2C[C@@H](CCCC[C@H](NC(=O)OC(C)(C)C)C(=O)N1C)NC2=O` [Example 2], the IC50 at SARS-CoV-2 3CL-protease (setting [2]) was less than 100 nM. In addition, the EC50 in assay [1] (Human coronavirus 229E, MRC5, 144 h; MRC-5 cells, hCoV-229E MOI 0.05, 6 days at 34° C., ATPlite; read-out: EC50 (229E)) is greater than 1000 nM.
Consider `CC(C)C[C@H]1C(=O)N[C@H](C#N)C[C@@H]2C[C@@H](CCCC[C@H](NC(=O)c3ccccc3Cl)C(=O)N1C)NC2=O` [Example 3], for which the IC50 on SARS-CoV-2 3CL-protease (setting [2]) is less than 100 nM. Further, the EC50 in assay [1] (setting [3]) was in the range of 100 to 1000 nM.
The like results for `CC(C)C[C@H]1C(=O)N[C@H](C#N)C[C@@H]2C[C@@H](CCCC[C@H](NC(=O)c3ccccn3)C(=O)N1C)NC2=O` [Example 4] were, in that order, less than 100 nM and greater than 1000 nM.
The like results for `CC(C)C[C@H]1C(=O)N[C@H](C#N)C[C@@H]2C[C@@H](CCCC[C@H](NC(=O)c3cc4c(F)cc(F)c(F)c4[nH]3)C(=O)N1C)NC2=O` [Example 5] were, in that order, 100 to 1000 nM and greater than 1000 nM.
For `CC(C)C[C@H]1C(=O)N[C@H](C#N)C[C@@H]2C[C@@H](CCCCc3nc(-c4ccccc4Cl)oc3N1C)NC2=O` [Example 6], in that order: 100 to 1000 nM and 100 to 1000 nM.
